Experiments:
[1] = tested on: E. coli strain 6322 (EMG2 (K12, λF+)); format: cell-based; note: key: '+' indicates that the organism tested was capable of utilizing the carbon source listed; '−' indicates that the organism tested was not capable of utilizing the carbon source listed; 'w' indicates weak positive reactions
[2] = tested on: E. coli 287 (ATCC #11775); format: cell-based
[3] = tested on: E. coli strain 13675 (O157); format: cell-based
[4] = tested on: E. coli strain 14445 (MG1655 himA); format: cell-based
[5] = tested on: E. coli strain 6320 (W3110); format: cell-based; note: key: '+' indicates that the organism tested was capable of utilizing the carbon source listed; '−' indicates that the organism tested was not capable of utilizing the carbon source listed; 'w' indicates weak positive reactions
[6] = tested on: E. coli strain 6321 (MG1655); format: cell-based; note: key: '+' indicates that the organism tested was capable of utilizing the carbon source listed; '−' indicates that the organism tested was not capable of utilizing the carbon source listed; 'w' indicates weak positive reactions
[7] = tested on: E. coli strain 13671 (O157:H? gur+); format: cell-based
[8] = tested on: E. coli strain 14443 (MG1655 (FB426)); format: cell-based; note: key: '+' indicates that the organism tested was capable of utilizing the carbon source listed; '−' indicates that the organism tested was not capable of utilizing the carbon source listed; 'w' indicates weak positive reactions
[9] = tested on: E. coli strain 13673 (O157); format: cell-based
[10] = tested on: E. coli MG1655; format: cell-based
[11] = tested on: E. coli strain 11547 (O157:H7); format: cell-based
[12] = tested on: E. coli strain 14444 (MG1655 xylA); format: cell-based
[13] = tested on: E. coli MG1655; format: cell-based; remark: listed apart in the source
[14] = tested on: T. harzianum DAOM 190830; format: cell-based, Trichoderma harzianum

In the case of `O=P(O)(O)OCC(O)CO` (racemic) [D,L-α-glycerol phosphate], the carbon source utilization [1] is reported as “+”, the “carbon source utilization result” value [2] is reported as “positive” and the carbon source utilization [3] is reported as “+”. The carbon source utilization [4] was “−”, the carbon source utilization [5] was “−” and the carbon source utilization [6] was “+”. The carbon source utilization [7] was “+”, the carbon source utilization [8] was “−” and the carbon source utilization [9] was “+”. For the same compound, the “suitability as phosphorus source (growth, purple color)” value [10] was “positive”, the carbon source utilization [11] was “+” and the carbon source utilization [12] was “−”.
For `NCCO` [2-amino ethanol], the carbon source utilization [1] was “−”, the “carbon source utilization result” value [2] was “positive/negative” and the carbon source utilization [3] was “−”. For the same compound, the carbon source utilization [4] was “−”, the carbon source utilization [5] was “−” and the carbon source utilization [6] was “−”. For the same compound, the carbon source utilization [7] was “−”, the carbon source utilization [8] was “−” and the “suitability as nitrogen source (growth, purple color)” value [13] was “not suitable”. For the same compound, the carbon source utilization [9] was “−”, the carbon source utilization [11] was “−” and the carbon source utilization [12] was “−”.
`O=C1O[C@@H]([C@H](O)CO)[C@H](O)[C@H]1O` [D-galactonic acid-γ-lactone] was tested, and the carbon source utilization [1] was “+”, the “carbon source utilization result” value [2] was “positive” and the carbon source utilization [3] was “−”. The “carbon source utilization, in words” value [3] was “negative”, the carbon source utilization [4] was “+” and the carbon source utilization [5] was “−”. The carbon source utilization [6] was “+”, the carbon source utilization [7] was “−” and the “carbon source utilization, in words” value [7] was “negative”. The carbon source utilization [8] was “+”, the carbon source utilization [9] was “−” and the “carbon source utilization, in words” value [9] was “negative”. For the same compound, the carbon source utilization [11] was “−”, the “carbon source utilization, in words” value [11] was “negative” and the carbon source utilization [12] was “+”.
`N[C@@H](C(=O)O)[C@@H](O)[C@H](O)[C@H](O)CO` [D-glucosaminic acid] was tested, and the carbon source utilization [1] was “−”, the “carbon source utilization result” value [2] was “negative” and the carbon source utilization [3] was “−”. The carbon source utilization [4] was “−”, the carbon source utilization [5] was “−” and the carbon source utilization [6] was “−”. For the same compound, the carbon source utilization [7] was “−”, the carbon source utilization [8] was “−” and the carbon source utilization [9] was “−”. The carbon source utilization [11] was “−” and the carbon source utilization [12] was “−”.
`OC[C@H]1O[C@H](OCC2O[C@@H](O)[C@H](O)[C@@H](O)[C@@H]2O)[C@H](O)[C@@H](O)[C@H]1O` (stereo partly drawn) [D-melibiose] was tested, and the carbon source utilization [1] was “+”, the “carbon source utilization result” value [2] was “positive” and the carbon source utilization [3] was “+”. For the same compound, the carbon source utilization [4] was “+”, the carbon source utilization [5] was “+” and the carbon source utilization [6] was “+”. The carbon source utilization [7] was “+”, the carbon source utilization [8] was “+” and the “carbon source utilization result” value [14] was “positive”. For the same compound, the carbon source utilization [9] was “+”, the carbon source utilization [11] was “+” and the carbon source utilization [12] was “+”.
`OC[C@H]1O[C@H](O[C@H]2O[C@H](CO)[C@@H](O)[C@H](O)[C@H]2O)[C@H](O)[C@@H](O)[C@@H]1O` [D-trehalose] was tested, and the carbon source utilization [1] was “+”, the “carbon source utilization result” value [2] was “positive” and the carbon source utilization [3] was “+”. The carbon source utilization [4] was “+”, the carbon source utilization [5] was “+” and the carbon source utilization [6] was “+”. The carbon source utilization [7] was “+”, the carbon source utilization [8] was “+” and the “carbon source utilization result” value [14] was “positive”. For the same compound, the carbon source utilization [9] was “+”, the carbon source utilization [11] was “+” and the carbon source utilization [12] was “+”.
`OC[C@@H](O)[C@H](O)[C@H](O)[C@@H](O)CO` [Dulcitol] was tested, and the carbon source utilization [1] was “−”, the carbon source utilization [3] was “+” and the carbon source utilization [4] was “−”. For the same compound, the carbon source utilization [5] was “−”, the carbon source utilization [6] was “+” and the carbon source utilization [7] was “+”. The carbon source utilization [8] was “−”, the carbon source utilization [9] was “−” and the carbon source utilization [11] was “+”. For the same compound, the carbon source utilization [12] was “−”.
With `O=P(O)(O)O[C@H]1O[C@H](CO)[C@@H](O)[C@H](O)[C@H]1O` [Glucose-1-phosphate] the carbon source utilization [1] was “+”, the “carbon source utilization result” value [2] was “positive” and the carbon source utilization [3] was “+”. The carbon source utilization [4] was “+”, the carbon source utilization [5] was “+” and the carbon source utilization [6] was “+”. For the same compound, the carbon source utilization [7] was “+”, the carbon source utilization [8] was “+” and the carbon source utilization [9] was “+”. The “suitability as phosphorus source (growth, purple color)” value [10] was “positive”, the carbon source utilization [11] was “+” and the carbon source utilization [12] was “+”.
With `O=C1O[C@H]([C@@H](O)CO)[C@@H](O)[C@@H]1O` [L-galactonic acid γ-lactone] the carbon source utilization [1] was “+”, the carbon source utilization [3] was “+” and the carbon source utilization [4] was “+”. For the same compound, the carbon source utilization [5] was “+”, the carbon source utilization [6] was “+” and the carbon source utilization [7] was “+”. For the same compound, the carbon source utilization [8] was “+”, the carbon source utilization [9] was “+” and the carbon source utilization [11] was “+”. For the same compound, the carbon source utilization [12] was “+”.
`C[C@H](O)C(=O)O` [L-lactic acid] was tested, and the carbon source utilization [1] was “+”, the carbon source utilization [3] was “+” and the carbon source utilization [4] was “+”. For the same compound, the carbon source utilization [5] was “+”, the carbon source utilization [6] was “+” and the carbon source utilization [7] was “+”. For the same compound, the carbon source utilization [8] was “+”, the carbon source utilization [9] was “+” and the carbon source utilization [11] was “+”. The carbon source utilization [12] was “+”.
`O=C(O)C[C@H](O)C(=O)O` [L-malic acid] was tested, and the carbon source utilization [1] was “+”, the carbon source utilization [3] was “+” and the carbon source utilization [4] was “+”. The carbon source utilization [5] was “+”, the carbon source utilization [6] was “+” and the carbon source utilization [7] was “+”. For the same compound, the carbon source utilization [8] was “+”, the carbon source utilization [9] was “+” and the carbon source utilization [11] was “+”. For the same compound, the carbon source utilization [12] was “+”.
In the case of `O=C(O)Cc1ccc(O)cc1` [P-hydroxy phenylacetic acid], the carbon source utilization [1] is reported as “−”, the “carbon source utilization result” value [2] is reported as “negative” and the carbon source utilization [3] is reported as “−”. For the same compound, the carbon source utilization [4] was “−”, the carbon source utilization [5] was “−” and the carbon source utilization [6] was “−”. The carbon source utilization [7] was “−”, the carbon source utilization [8] was “−” and the carbon source utilization [9] was “−”. For the same compound, the carbon source utilization [11] was “−” and the carbon source utilization [12] was “−”.
For `CO[C@H]1O[C@H](CO)[C@H](O)[C@H](O)[C@H]1O` [α-methyl galactoside], the carbon source utilization [1] was “+”, the carbon source utilization [3] was “+” and the carbon source utilization [4] was “+”. The carbon source utilization [5] was “+”, the carbon source utilization [6] was “+” and the carbon source utilization [7] was “+”. For the same compound, the carbon source utilization [8] was “+”, the carbon source utilization [9] was “+” and the carbon source utilization [11] was “+”. The carbon source utilization [12] was “+”.
For `COC1OC(CO)C(O)C(O)C1O` (stereo not drawn) [β-methyl glucoside], the carbon source utilization [1] was “+”, the “carbon source utilization result” value [2] was “positive” and the carbon source utilization [3] was “+”. For the same compound, the carbon source utilization [4] was “+”, the carbon source utilization [5] was “+” and the carbon source utilization [6] was “+”. The carbon source utilization [7] was “+”, the carbon source utilization [8] was “+” and the “carbon source utilization result” value [14] was “positive”. The carbon source utilization [9] was “+”, the carbon source utilization [11] was “+” and the carbon source utilization [12] was “+”.
For Maltotriose, the carbon source utilization [1] was “+”, the carbon source utilization [3] was “+” and the carbon source utilization [4] was “−”. For the same compound, the “carbon source utilization, in words” value [4] was “negative”, the carbon source utilization [5] was “+” and the carbon source utilization [6] was “+”. For the same compound, the carbon source utilization [7] was “+”, the carbon source utilization [8] was “+” and the carbon source utilization [9] was “+”. The carbon source utilization [11] was “+”, the carbon source utilization [12] was “−” and the “carbon source utilization, in words” value [12] was “negative”.

Source: patent publication US6727076B2 (priority 1995, dated 2004)
